# In patent US5371102A, “Compositions and methods of inhibiting thyroid activity” (priority 1993, dated 1994):
# Key:
# TPX [1] = molecular target: T1, TPX (Sus scrofa, UniProt P09933); test: TPX-catalyzed iodide oxidation (triiodide formation), spectrophotometric; type: biochemical, hog
# T1 sequence (P09933 15-926): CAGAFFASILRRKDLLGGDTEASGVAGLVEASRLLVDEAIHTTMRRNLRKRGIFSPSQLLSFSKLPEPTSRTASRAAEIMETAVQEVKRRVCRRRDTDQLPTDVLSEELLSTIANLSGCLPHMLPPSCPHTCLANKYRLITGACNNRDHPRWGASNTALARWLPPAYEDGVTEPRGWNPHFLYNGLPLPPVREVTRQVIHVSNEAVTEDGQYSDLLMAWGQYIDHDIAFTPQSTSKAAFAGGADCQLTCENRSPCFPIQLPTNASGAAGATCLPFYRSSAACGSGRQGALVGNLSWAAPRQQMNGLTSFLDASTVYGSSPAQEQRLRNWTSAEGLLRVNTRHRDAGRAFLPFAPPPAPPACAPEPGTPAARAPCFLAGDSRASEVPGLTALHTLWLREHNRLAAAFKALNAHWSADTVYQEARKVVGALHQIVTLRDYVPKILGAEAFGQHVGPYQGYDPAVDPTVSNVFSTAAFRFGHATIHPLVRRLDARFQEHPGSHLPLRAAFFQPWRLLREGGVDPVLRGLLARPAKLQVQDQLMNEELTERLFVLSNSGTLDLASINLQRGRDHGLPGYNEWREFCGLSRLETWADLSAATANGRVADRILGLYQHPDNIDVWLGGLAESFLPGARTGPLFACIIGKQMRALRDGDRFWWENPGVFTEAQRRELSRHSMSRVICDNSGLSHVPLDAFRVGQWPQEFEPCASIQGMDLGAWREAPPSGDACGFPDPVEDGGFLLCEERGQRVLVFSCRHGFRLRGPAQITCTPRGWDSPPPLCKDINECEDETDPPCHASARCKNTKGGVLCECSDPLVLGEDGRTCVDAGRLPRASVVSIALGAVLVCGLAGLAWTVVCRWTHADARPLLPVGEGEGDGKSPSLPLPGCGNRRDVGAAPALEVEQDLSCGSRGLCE
# From the text: Materials used in the examples below were obtained from the following sources. Bovine LPX, bovine liver catalase, glucose oxidase, 30% hydrogen peroxide, glucose, guaiacol, ABTS and deuterium oxide were purchased from Sigma Chemical Company. Selenium dioxide, MBI ^13 CH3 I and PBA were purchased from Aldrich Chemical Company and PBA was purified as previously described by Fieset et al., Reagents for Organic Synthesis, Vol. I, pp.135-139, John Wiley and Sons, N.Y. (1967). LPX purity was checked by PAGE, as described by Doerge, D.R., et al. in, Biochem. Pharmacol., Vol.36, pp.972-974 (1986). TPX was purified from hog thyroids obtained from a local slaughterhouse by published procedures. Doerge & Takazowa, Chemical Research in Toxicology, Vol. 3, pp. 98-101 (1990). TPX purity was determined by LC and its concentration determined spectophotometrically. Hydroperoxide concentrations were determined by iodometric titration, as described by Kolthoff, et al., in "Quantitative Chemical Analysis", Macmillan, London, pp.842-860 (1969). MMBI, and BI were synthesized by published procedures as described by Doerge, D.R., Biochem, Vol. 27, pp. 3697-3700 (1988) and were recrystallized from aqueous ethanol. MeBI was purified by distillation and DMeBI^+ was synthesized and purified by recrystallization from ethyl acetate/methanol. 1-^13 C-MMBI was synthesized from ^13 CH3 I according to the procedure disclosed by Doerge, D.R., in, J. Lab. Comp. and Radiopharm., Vol.25, pp.985-990 (1988). PPHP and PPA were prepared, purified and analyzed as previously described by Doerge, Biochem, Vol.27, p.11 (1988). The methyl ester of 1-methyl-benzimidazole-2-sulfinic acid was prepared by addition of hydrogen peroxide (5 equivalents of a 10 M solution) to MMBI (0.1 M) in methanol. The products, MeBI and the ester, were obtained following preparative TLC on silica (Uniplate, Analtech Co., Newark, DL) using 5% methanol/chloroform as eluant. […]
# 1,3-diacetyl MBI (AczMBI) was synthesized according to the method published by Doerge et al., Syn. […] Varying quantities of Ac2 MBI were incubated with TPX, H2 O2, and I^-. […]
# [2] = kinetics of thione oxygenation by hydrogen peroxide/TFA; type: physicochemical; settings: thione 25 μM, H2O2 34 mM, TFA 163 mM in methanol, 25° C.; relative to DMMBI
# Procedure: The kinetics of thione oxygenation were determined for MBI, MMBI and DMMBI. Oxygenation by hydrogen peroxide/TFA was measured spectrophotometrically (305 nm) at 25° C. by addition of thione (final concentration 25 μM) to hydrogen peroxide (34 mM) and TFA (163 mM) in methanol.
# TPX [3] = molecular target: T1, TPX; test: TPX inactivation; type: biochemical, hog
# From the text: Materials used in the examples below were obtained from the following sources. Bovine LPX, bovine liver catalase, glucose oxidase, 30% hydrogen peroxide, glucose, guaiacol, ABTS and deuterium oxide were purchased from Sigma Chemical Company. Selenium dioxide, MBI ^13 CH3 I and PBA were purchased from Aldrich Chemical Company and PBA was purified as previously described by Fieset et al., Reagents for Organic Synthesis, Vol. I, pp.135-139, John Wiley and Sons, N.Y. (1967). LPX purity was checked by PAGE, as described by Doerge, D.R., et al. in, Biochem. Pharmacol., Vol.36, pp.972-974 (1986). TPX was purified from hog thyroids obtained from a local slaughterhouse by published procedures. Doerge & Takazowa, Chemical Research in Toxicology, Vol. 3, pp. 98-101 (1990). TPX purity was determined by LC and its concentration determined spectophotometrically. Hydroperoxide concentrations were determined by iodometric titration, as described by Kolthoff, et al., in "Quantitative Chemical Analysis", Macmillan, London, pp.842-860 (1969). MMBI, and BI were synthesized by published procedures as described by Doerge, D.R., Biochem, Vol. 27, pp. 3697-3700 (1988) and were recrystallized from aqueous ethanol. MeBI was purified by distillation and DMeBI^+ was synthesized and purified by recrystallization from ethyl acetate/methanol. 1-^13 C-MMBI was synthesized from ^13 CH3 I according to the procedure disclosed by Doerge, D.R., in, J. Lab. Comp. and Radiopharm., Vol.25, pp.985-990 (1988). PPHP and PPA were prepared, purified and analyzed as previously described by Doerge, Biochem, Vol.27, p.11 (1988). The methyl ester of 1-methyl-benzimidazole-2-sulfinic acid was prepared by addition of hydrogen peroxide (5 equivalents of a 10 M solution) to MMBI (0.1 M) in methanol. The products, MeBI and the ester, were obtained following preparative TLC on silica (Uniplate, Analtech Co., Newark, DL) using 5% methanol/chloroform as eluant.
# DMMBI was synthesized according to a published method. Duffin et al., J. Chem. Soc., Part II, pp.364-365 (1956). Samples including TPX, H2 O2, and I^- were incubated with and without DMMBI. Triiodide formation was observed spectrophotometrically with respect to time.
# LPX and TPX = test: suicide inhibition of peroxidases (summary statements); type: biochemical
smiles,measurement,setting,value
"Cn1c(=S)n(C)c2ccccc21 [DMMBI, 1,3-dimethylbenzimidazole-2-thione]",effect on triiodide formation,"TPX [1]; TPX, H2O2 and I-","causes a lag in triiodide formation, followed by an increase in the rate of triiodide formation approximating the control rate"
same,inhibition of iodide ion oxidation,TPX [1]; TPX/hydrogen peroxide,inhibits only iodide ion oxidation
same,relative rate of oxygenation,[2],1
same,TPX inactivation,"TPX [3]; 100 μM, 1 minute incubation",does not inactivate TPX
same,TPX inactivation,TPX [3]; presence of hydrogen peroxide,does not inactivate LPX or TPX
same,selectivity for iodide ion oxidation,LPX and TPX; alternate substrate mechanism,block only reactions involving iodide ion oxidation
same,suicide inhibition,LPX and TPX; summary of own examples,not suicide inhibitors
